The results in this text go back to publication PMC3823594, “Conformational Changes Underlying Pore Dilation in the Cytoplasmic Domain of Mammalian Inward Rectifier K^+ Channels” (PLoS ONE, 2013).

Test in all cases: Two-electrode voltage clamp, ACh-dependent (m2R-dependent) K+ current activation
(In two-electrode clamp one electrode senses voltage and the other passes current.)

In assay [1] the test system is Kir3.2 M313D. The assay is classed as cell-based, mouse. Conditions: Kir3.2 M313D with porcine m2R in Xenopus oocytes; −120 mV; Hill equation fit, min not zero. An excerpt:
(§1) The mouse Kir3.2d isoform was subjected to functional analyses. The amino acid numbers correspond to the longest mouse Kir3.2 isoform. Point mutations were introduced using the QuikChange site-directed mutagenesis kit (Stratagene, La Jolla, CA), and the presence of the mutations was confirmed by direct DNA sequencing. The care of Xenopus laevis was in accordance with the guideline of the Institute of Experimental Animal Sciences, Osaka University. The protocol was approved by the Animal Experiment Committee of Osaka University. The frogs were deeply anesthetized by immersing in 0.2% tricaine methanesulfonate for 20 min at 18°C. A portion of an ovary lobe was surgically removed and incubated with collagenase to remove follicular cells. The oocytes were injected with the cRNAs of Kir3.2 and porcine m2-muscarinic receptor (m2R), and maintained in modified Barth’s solution at 18°C with daily solution changes. Electrophysiological studies were undertaken 48–72 h later at room temperature (20–25°C). Two-electrode voltage-clamp recordings from oocytes were performed using a GeneClamp 500B amplifier (Axon Instruments, Sunnyvale, CA). […] The bath solution contained 40 mM KCl, 50 mM NaCl, 3 mM MgCl2, 0.15 mM niflumic acid, and 5 mM HEPES-KOH (pH 7.4). The currents were recorded in the absence or presence of various concentrations of acetylcholine (ACh). Ba^2+ (3 mM) was added at the end of the recording to estimate the endogenous leak current. The data are expressed as mean values ± standard error of the mean. For the quantitative estimation of ACh-dependent current responses of the wild-type (WT) and mutant channels, the current amplitudes at the end of test pulses at each ACh concentration ([ACh]) were fitted using the following equation:
(§2) I=min+[(max−min)/(1+(EC50/[ACh])^nH)]
(§3) where I is the current amplitude measured at the [ACh], n H is the Hill coefficient, and EC50 is the concentration that induces 50% of the maximal response. […] The values of n H and EC50 were calculated using a non-linear least-squares best fit (SigmaPlot 9; Systat Software). Statistical analyses were performed by one-way ANOVA with post-hoc tests.

Assay [2] relates to Kir3.2 M313Q. It is filed as cell-based, mouse. Conditions: Kir3.2 M313Q with porcine m2R in Xenopus oocytes; −120 mV; Hill equation fit.
Description: as §1, §2, §3

Assay [3] has as its target T1, Kir3.2 WT (Mus musculus, UniProt P48542).
T1 sequence (P48542 1-425): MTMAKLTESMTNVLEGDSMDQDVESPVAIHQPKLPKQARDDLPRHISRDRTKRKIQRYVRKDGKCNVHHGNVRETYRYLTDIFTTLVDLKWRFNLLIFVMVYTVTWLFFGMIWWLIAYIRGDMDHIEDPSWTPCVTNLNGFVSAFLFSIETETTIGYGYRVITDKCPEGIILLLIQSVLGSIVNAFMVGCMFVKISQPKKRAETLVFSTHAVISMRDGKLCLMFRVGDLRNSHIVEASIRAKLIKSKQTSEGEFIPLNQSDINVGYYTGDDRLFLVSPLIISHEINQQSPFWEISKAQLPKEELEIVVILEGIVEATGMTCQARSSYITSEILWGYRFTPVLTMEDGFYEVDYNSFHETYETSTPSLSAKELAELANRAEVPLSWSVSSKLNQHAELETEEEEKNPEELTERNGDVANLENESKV
T1 sequence (P06199 1-466 partner): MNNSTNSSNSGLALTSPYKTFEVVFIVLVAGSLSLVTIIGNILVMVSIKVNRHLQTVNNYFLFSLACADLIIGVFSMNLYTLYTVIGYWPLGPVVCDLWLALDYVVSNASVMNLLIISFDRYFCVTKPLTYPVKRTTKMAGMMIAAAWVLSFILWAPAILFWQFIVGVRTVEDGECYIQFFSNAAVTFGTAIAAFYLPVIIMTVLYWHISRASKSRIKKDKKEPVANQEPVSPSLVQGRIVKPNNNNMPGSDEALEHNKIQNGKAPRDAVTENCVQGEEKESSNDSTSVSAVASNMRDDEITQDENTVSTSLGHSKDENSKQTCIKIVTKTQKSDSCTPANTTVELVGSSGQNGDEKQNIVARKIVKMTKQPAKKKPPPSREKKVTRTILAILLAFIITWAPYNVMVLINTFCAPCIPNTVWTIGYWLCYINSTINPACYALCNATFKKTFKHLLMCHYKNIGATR
The assay is classed as cell-based. Conditions: Kir3.2 WT with porcine m2R in Xenopus oocytes; −120 mV; Hill equation fit.

In assay [4] the target is T2, Kir3.2 E236G (Mus musculus, UniProt P48542, E236G).
T2 sequence (P48542 19-425 E236G): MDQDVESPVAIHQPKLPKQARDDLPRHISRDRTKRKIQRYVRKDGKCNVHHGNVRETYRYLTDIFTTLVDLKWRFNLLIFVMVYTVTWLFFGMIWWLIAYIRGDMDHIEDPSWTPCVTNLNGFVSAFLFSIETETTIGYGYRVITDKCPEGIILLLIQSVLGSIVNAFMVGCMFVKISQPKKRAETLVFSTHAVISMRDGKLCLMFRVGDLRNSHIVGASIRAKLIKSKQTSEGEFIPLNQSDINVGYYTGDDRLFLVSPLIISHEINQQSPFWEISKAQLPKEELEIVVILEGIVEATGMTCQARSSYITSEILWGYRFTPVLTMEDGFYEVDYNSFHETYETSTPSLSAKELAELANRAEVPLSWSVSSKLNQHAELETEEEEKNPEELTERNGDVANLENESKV
T2 sequence (P06199 1-466 partner): T1 sequence (P06199 1-466 partner)
The assay is classed as cell-based. The conditions noted are these: Kir3.2 E236G with porcine m2R in Xenopus oocytes; −120 mV; Hill equation fit.

In general, EC50 refers to the concentration that produces a half-maximal response. The term Hill coefficient denotes the slope factor of the fitted curve. As for `CC(=O)OCC[N+](C)(C)C` [ACh, acetylcholine], the results for the EC50 in assay [1] and in assay [2] were 130 ± 10 nM and 50 ± 5 nM, respectively. Moreover, the Hill coefficient in assay [1] is listed as 0.73 ± 0.06; in assay [2] it was 0.81 ± 0.04; in assay [3], 0.83 ± 0.06; in assay [4], 1.10 ± 0.04.
